Assays:
[1] = test system: immunoglobulins (IgG, IgE, IgM and IgA) present in human serum; assay: Separation and purification of immunoglobulins from raw human serum by affinity chromatography on the resin-immobilized compound (gel electrophoresis and Western blotting of fractions); assay type: binding; details: compound immobilized on Ultralink Biosupport Medium
Experimental: (§1) Compound IB (5 mg) prepared according to the preceding Example 1 was dissolved in 5.0 ml of 0.2 M NaHCO3, 0.6 M Na citrate, pH 9.0, and incubated with 130 mg (1 mL) of resin Ultralink Biosupport Medium™ (PIERCE, Rockford, IL, USA), a support for affinity chromatography pre-activated with a function of the azalactone type for direct coupling of peptides and proteins. The suspension was stirred for 12 hours at room temperature and the extent of coupling was monitored by taking samples of the reaction mixture at various times and then analysing by RP-HPLC.
(§2) After 12 hours, approx. 90-95% of the initial peptide had been immobilized covalently on the resin. The derivatized resin was incubated with 0.1 M TRIS, pH 8.5 to block any sites of the resin that are still reactive, and then packed in a glass column 100 x 0.6 mm ID with variable plunger (OMNIFIT™, Cat. No. 006CC-06-10-FF).
(§3) To evaluate the capability of Compound I(B) immobilized on resin according to Example 2 to separate and purify immunoglobulins, the column was equilibrated with buffer 25 mM Bis-Tris (Bis(2-hydroxyethyl)amino-tris(hydroxymethyl)methane, Sigma-Aldrich™, Cat. No. B7535), pH 6.5, at a flow rate of 1 mL/min, monitoring the eluent at 280 nm.
Raw human serum (Sigma-Aldrich™, Cat. No. R9133) was filtered, diluted 1:1 (v/v) with the binding buffer, loaded on the column and, after elution of the unbound material, the eluent was changed to acetic acid (AcH, Sigma-Aldrich™, Cat. No. 46928) 0.1 M, pH 3.0, for eluting the adsorbed material.
The material eluted from the column was neutralized with TRIS 1 M, pH 9.0 and characterized by analysis by polyacrylamide gel electrophoresis and Western blotting (WB) on nitrocellulose for identifying the immunoglobulins retained.

[2] = test system: IgG, IgE, IgM and IgA immunoglobulins; assay: Separation and purification of immunoglobulins from raw murine serum by affinity chromatography on the resin-immobilized compound; assay type: binding; details: compound immobilized on Ultralink Biosupport Medium
Experimental: as §1, §2
as §3, with “nm. […]” for “nm.”

## (NH2-L-Cys-L-Tyr-L-His-L-His)2-L-Lys-L-Gly-OH [Compound I(B)]
[1]; raw human serum diluted 1:1, binding buffer 25 mM Bis-Tris pH 6.5, elution with acetic acid 0.1 M pH 3.0
  retention of the immunoglobulin fraction of the raw serum (electrophoretic analysis): able to retain the immunoglobulin fraction of the raw serum
[1]; raw human serum, Western blotting on nitrocellulose
  classes of immunoglobulins retained (WB analysis of the retained material): retained all the classes of immunoglobulins (IgG, IgE, IgM and IgA)
[1]; raw human serum, electrophoretic analysis
  albumin (selectivity of the column): recovered in the unretained material
[2]
  albumin (selectivity of the column): recovered in the unretained material
  immunoglobulins retained by the column: able to retain the IgG, IgE, IgM and IgA immunoglobulins

From patent EP1621546B1, “Peptide ligands specific to immonoglobulins” (Tecnogen S.p.A., priority 2004, dated 2008)
